Key:
MDAY-D2 tumor [1] = assay: MDAY-D2 tumor growth in vivo, orthovanadate s.c. (Example 6A); parameters: species or system mice; conditions: 10 mg/ml, 50 μl daily s.c., day 14
Description: (§1) In order to examine the ability of vanadyl compounds to reduce tumor formation, growth and metastases, a specific animal model which allows investigation of all of these processes in the same animal was chosen. This model involves the injection of a metastatic haematopoietic cell line, MDAY-D2, into mice subcutaneously. These cells form a tumor at the site of injection and its size can be easily determined. In addition, these cells metastasize to the liver and metastases can be detected histologically after day 17 to 19. This model provides a very sensitive and reproducible approach to investigate the effect of vanadyl compounds on tumor growth and metastases.
Using the animal model described above, the effect of subcutaneous administration of orthovanadate on tumor growth was investigated. A total of 15 mice were injected subcutaneously with 1×10^5 MDAY-D2 cells on Day 1. On Day 5, small tumors could be observed at the site of injection. Five mice were injected daily with 50 μl of water alone and 10 mice were injected daily with water containing 10 mg/ml orthovanadate. On day 14, the mice were sacrificed. The tumors were removed from all the animals, photographed, and weighed. FIG. 11 compares sizes of tumors from two untreated and two orthovanadate treated mice. […] In animals treated with water alone, four mice had tumors weighing between 1.18 and 1.68 gms.

KB8, KB8-5 and KB85-11 = assay: killing of drug resistant ovarian cancer cell lines KB8, KB8-5 and KB85-11; assay type: cell-based; conditions: 0-50 μM, 48 hours
Description: The effect of orthovanadate on three ovarian cancer cell lines, KB8, KB8-5 and KB85-11, which have increasing drug resistance, respectively, relative to the parent cell line, KB3-1 was compared. These drug resistant cell lines are not killed by several classes of chemotherapeutic agents such as colchicine, vinblastine and doxorubicin. In the study, cell lines of increasing drug resistance (KB8, KB8-5 and KB-85-11) and the parent cell line, KB3-1, were incubated in media (DMEM) containing 0-50 μM orthovanadate for 48 hours. The cells were harvested and the number of viable cells determined.

HTB14 cells = assay: viability of HTB14 cells; assay type: cell-based, human; conditions: 0-50 μM, 48 hours
Description: Fos and jun activity are also required for cellular proliferation in many tumor cell lines. Accordingly, the effect of orthovanadate on adherent cells and cell suspensions were examined. MDAY-D2 (a mouse lymphoid cell line grown in suspension) and HTB14 cells (an adherent human primary astrocytoma cell line) were incubated in media containing 0-50 μM orthovanadate for 48 hours. The cells were harvested and the number of viable cells determined.

[2] = system: metastases of MDAY-D2 cells; assay: liver metastases of MDAY-D2 cells (histology); assay type: in vivo, mice; conditions: 500 μg/day; preliminary results
Description: as §1
The metastatic liver was obtained from an animal 24 days following the administration MDAY-D2 cells. The nodules are quite numerous and large.
Livers were removed from animals treated as described above and prepared for histological examination. FIG. 16 compares liver sections from untreated (C), orthovanadate (VO)(500 μg/day) and vanadyl sulphate (VS)(500 μg/day) treated animals. Nodules are identified with an arrow.

jun = jun / c-jun mRNA expression in chondrocytes (Northern blot); assay type: cell-based, bovine; conditions: 100 μM
Description: The cytokine interleukin 1 (IL 1) has been used to identify the intermediate second messengers which regulate the expression of fos and jun.
Although IL 1 stimulated superoxide production, it was not known whether IL 1 induced fos and jun expression was dependent on the production of superoxides. In order to elucidate this possibility, the effect of DPI on fos and jun mRNA levels induced by IL 1 was investigated. RNA from chondrocytes treated with IL 1 in the presence and absence of DPI were analyzed by Northern blot analysis using either fos or collagenase cDNA probes. […] Similar data has been obtained for IL 1 induced jun expression. Furthermore, inhibition of fos and jun expression by DPI was sufficient to suppress IL 1 induced and constitutive collagenase expression.
The effect of orthovanadate and N-acetylcysteine on fos, jun and collagenase expression were examined. Bovine articular chondrocytes were isolated and plated as previously described (Kandel R. A. et al. Biochim. Biophys. Acta. 1053, 130-134, 1990). In order to determine the effect of orthovanadate on IL 1 and PMA (phorbol ester) induced responses, chondrocytes were incubated with orthovanadate (100 μM) for 2 hours before stimulation with IL 1 (10 ng/ml) or PMA ([…]). Collagenase production was determined by incubating chondrocytes for 24 hours with IL 1 or PMA and the cell conditioned medium was assayed for collagenase activity using an ELISA procedure as described previously (Kandel et al. supra). PLA2 activity was measured by incorporating ^3 H-arachidonic acid (^3 H-AA) into the cells and then incubating the cells with medium containing 1 mg/ml BSA, either alone or in the presence of IL 1 or PMA, for 10 min. as previously described (Conquer, J. A. […], Biochim. Biophys. Acta. 1134, 1-6). The amount of ^3 H-AA liberated into the supernatant was determined. […] The supernatant was analyzed by RIA using an antibody specific for PGE2 (Dr. S. A. Jones, Mount Sinai Hospital, Toronto, Canada). […]

synoviocytes = assay: synoviocyte proliferation, dye exclusion (Example 24); assay type: cell-based
Description: The effect of vanadium compounds on synoviocyte proliferation was investigated as follows. Synoviocytes were plated on six well plates and treated with orthovanadate or vanadyl sulphate and incubated for 24 hours. The cells were removed and the number of viable cells determined by the dye exclusion method.

MDAY-D2 tumor [3] = assay: MDAY-D2 tumor growth in vivo, orthovanadate, vanadyl sulphate, vanadyl hydroperoxide (Example 6B); parameters: species or system mice
Description: as §1
In a separate experiment using the same animal model, the effect of orthovanadate, vanadyl sulphate and vanadyl hydroperoxide administration on tumor growth in vivo was examined. On Day 1, 20 mice were injected with 2×10^5 MDAY-D2 cell subcutaneously. The mice were divided into four groups of five mice. At day 5, the animals were injected subcutaneously with 50 μl of water alone or containing 10 mg/ml of orthovanadate, 10 mg/ml of vanadyl sulphate, or 10 mg/ml of vanadyl hydroperoxide. This treatment was continued daily for 16 days. At day 21, the mice were sacrificed and the tumors dissected and weighed.

## [Na+].[Na+].[Na+].[O]=[V]([O-])([O-])[O-] [orthovanadate, sodium orthovanadate]
MDAY-D2 tumor [1]
  detectable tumors: 2 mice did not have detectable tumors
MDAY-D2 tumor [1]; five mice
  tumor size: less than 0.16 gms
KB8, KB8-5 and KB85-11
  killing of drug resistant cell lines: equally effective
HTB14 cells
  toxicity to HTB14 cells: toxic
[2]
  metastases in liver: did not have detectable levels of metastases
jun
  inhibition of IL 1, PMA and AA induced c-jun expression: completely inhibited
synoviocytes; 25 μM, 24 hours (control 2.6)
  Number of cells: 0.1 10^-5
synoviocytes; 24 hours
  cytotoxicity to synoviocytes: cytotoxic to the cells
  synoviocyte proliferation: inhibited synoviocyte proliferation
MDAY-D2 tumor [3]; day 21
  detectable tumors: one mouse did not have detectable tumors
MDAY-D2 tumor [3]; groups of five, 10 mg/ml, 50 μl daily s.c.
  animal deaths: One animal died
MDAY-D2 tumor [3]; mouse, in vivo
  efficacy in reducing tumor growth: most efficacy

— patent US5871779A, “Treatment of arthropathies with vanadate compounds or analogues thereof” (Mount Sinai Hospital Corporation, priority 1996, dated 1999)
